Entries after “also recorded” stand apart in the source; their conditions may differ.
Tests used:
[1] = tested on: E. coli cells with AGS1 variant AGS1m7 (pAX3431), G168C, V214M, K395R, SEQ ID NO:14; assay: growth of E. coli on glufosinate plates, ags1m7; format: cell-based; details: 2, 10, 20, 50, and 100 mM; DH5a; Clone 10
Method: Mutants of the bacterial glutamine synthetase gene ags1 (SEQ ID NO:1) were created by error-prone mutagenesis using the GENEMORPH® Random Mutagenesis kit, and also using oligo-directed mutagenesis as known in the art. However, many methods are available for creating libraries of mutants. The resulting mutants were cloned into a pUC19 vector, electroporated into either XL-1 or DH5 alpha E. coli cells, and selected for growth on M63+ agar media containing antibiotic and 2, 10, or 20 mM glufosinate. Twenty-two clones were identified as growing on 20 mM glufosinate, and picked for further analysis.

[2] = target: Serratia marcescens glutamine synthetase AGS1 variant AGS1m21, N160S, G167R, V214M, SEQ ID NO:42 (Serratia marcescens, UniProt A0A0F6KS08, G167R/N160S/V214M); assay: enzymatic assay, kinetics of AGS1m21; format: biochemical
Sequence of Serratia marcescens glutamine synthetase AGS1 variant AGS1m21, N160S, G167R, V214M, SEQ ID NO:42 (A0A0F6KS08 whole entry N160S/G167R/V214M): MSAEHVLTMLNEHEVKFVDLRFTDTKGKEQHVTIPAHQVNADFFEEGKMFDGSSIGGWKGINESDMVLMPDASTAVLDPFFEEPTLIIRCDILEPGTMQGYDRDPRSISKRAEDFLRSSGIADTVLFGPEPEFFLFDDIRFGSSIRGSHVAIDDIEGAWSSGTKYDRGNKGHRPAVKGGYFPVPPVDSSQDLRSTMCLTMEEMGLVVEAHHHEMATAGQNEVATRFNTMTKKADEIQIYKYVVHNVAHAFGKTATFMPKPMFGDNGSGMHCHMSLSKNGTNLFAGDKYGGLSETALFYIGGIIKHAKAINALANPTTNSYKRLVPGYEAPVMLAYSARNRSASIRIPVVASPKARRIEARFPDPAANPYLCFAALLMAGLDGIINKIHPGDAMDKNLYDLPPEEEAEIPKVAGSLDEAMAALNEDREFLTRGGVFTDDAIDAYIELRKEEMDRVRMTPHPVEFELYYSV
Text: ags1m21 (SEQ ID NO:41) encodes the AGS1m21 protein (SEQ ID NO:42). AGS1m21 is a variant of AGS1 that contains a similar amino acid change identified in other variants (V214M), as well as two novel mutations (N160S and G167R). This enzyme was expressed in E. coli, purified, and the kinetic values Km(glutamate) and Ki(glufosinate) of the variant measured by enzymatic assay.

[3] = tested on: E. coli DH5α cells with TKH3; assay: growth of DH5α with TKH3 on M63 minimal plates with glufosinate; format: cell-based; details: 20 mM glufosinate
Method: To obtain the gene(s) responsible for the strain's resistance to glufosinate, a small insert plasmid genomic library was prepared from strain ATX 20345. Genomic DNA was extracted from a fresh, overnight LB culture using SDS, proteinase K cell lysis followed by CTAB/NaCl, phenol-chloroform extractions. Partial digests were performed on the genomic DNA using 0.1 units Sau3A I at 37° C. for 30 minutes followed by the addition of EDTA and incubation at 65° C. for 20 minutes to halt the reaction. Resultant DNA was approximately 4-12 kb in size. The DNA was gel purified, treated with T4 polynucletide kinase, then ligated into BamH I digested pUC18 vector. Ligations were transformed into DH5a and plated directly on M63 minimal media plates containing 20 mM glufosinate, 100 μg/ml carbenicillin, and 0.1 mM IPTG. After several days, 4 colonies had appeared, tentatively named TKH1-4. They were grown up and plasmid DNA was isolated and analyzed by digestion with EcoR I+ Hind III, and Pst I/Sac Ito compare inserts. Though all four clones contained inserts, TKH2 and TKH3 were identical by restriction digest analysis, and both contained inserts of approximately 4.9 kb.
To reconfirm that TKH2 and TKH3 confer resistance to 20 mM glufosinate, the purified plasmids were retransformed into DH5α cells. pUC18 was retransformed as a negative control. […]

[4] = target: Serratia marcescens glutamine synthetase AGS1 variant AGS1(AD-), tyrosine 398 to phenylalanine, SEQ ID NO:44 (Serratia marcescens, UniProt A0A0F6KS08, Y398F); assay: enzymatic assay, kinetics of AGS1(AD-); format: biochemical
Sequence of Serratia marcescens glutamine synthetase AGS1 variant AGS1(AD-), tyrosine 398 to phenylalanine, SEQ ID NO:44 (A0A0F6KS08 whole entry Y398F): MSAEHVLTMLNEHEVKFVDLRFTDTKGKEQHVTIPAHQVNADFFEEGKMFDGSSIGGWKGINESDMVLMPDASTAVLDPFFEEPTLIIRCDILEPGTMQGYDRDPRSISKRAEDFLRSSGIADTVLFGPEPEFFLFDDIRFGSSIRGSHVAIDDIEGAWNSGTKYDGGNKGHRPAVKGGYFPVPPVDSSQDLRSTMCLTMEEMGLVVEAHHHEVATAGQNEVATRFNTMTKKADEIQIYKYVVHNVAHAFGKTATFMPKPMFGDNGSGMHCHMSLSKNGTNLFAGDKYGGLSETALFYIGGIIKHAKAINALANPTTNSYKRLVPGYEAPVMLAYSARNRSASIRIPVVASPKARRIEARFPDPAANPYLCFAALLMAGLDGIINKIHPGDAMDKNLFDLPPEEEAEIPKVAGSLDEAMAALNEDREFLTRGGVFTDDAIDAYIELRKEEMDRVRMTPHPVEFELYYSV
Method: ags1(ad-) (SEQ ID NO:43) encoding the AGS1(AD-) protein (SEQ ID NO:44), is a variant of ags1 in which the putative adenylylation site has been removed by mutating the tyrosine at position 398 of AGS1 to a phenylalanine by site directed mutagenesis.
The unmodified enzyme (AGS1) was compared to AGS1(AD-) and AGS1m17(AD-) by carrying out enzymatic assays on both enzymes following purification from E. coli. A glutamine synthetase enzyme from E. coli (GlnA) was also tested.

ATX 20345 = assay: Growth of strain ATX 20345 in minimal medium with glufosinate; format: cell-based, Serratia marcescens; details: no other nitrogen source, 21° C.
Method: A glufosinate resistant bacterial strain (ATX 20345) was isolated from a soil sample via a soil suspension by placing approximately 0.01 grams soil in 500 μl sterile water. The soil suspension was vortexed, and 20 μl was used to inoculate a 2.5 ml minimal medium culture supplemented with 5 mM glufosinate (Riedel-de Habël, available through Sigma-Aldrich, St. Louis, Mo.). The minimal medium contains the following ingredients (per 1 liter): 10 grams sucrose, 1 ml 0.8M MgSO4, 1 ml 0.1M CaCl2, 1 ml trace elements, 2.38 grams KH2PO4, 5.64 grams K2HPO4. The pH is adjusted to 7.0, and the solution is sterilized with a 0.2 μm filter. Trace elements consist of (per 100 ml) 0.1 g FeSO4.7H2O, 0.5 mg CuSO4.5H2O, 1.0 mg H3BO3, 1.0 mg MnSO4.5H2O, 7.0 mg ZnSO4.7H2O, 1.0 mg MoO3, 4.0 g KCl. No additional nitrogen source was provided in the medium. Cultures were grown at 21° C. on a rotary shaker for 3 days then transferred to fresh minimal medium containing 5 mM glufosinate and incubated at 21° C. After 2 days, the cultures were used to inoculate fresh minimal medium with 5 mM glufosinate. After 2 days, the cultures were plated onto Luria Bertani (LB) agar and then restruck for isolation. […] Colonies on LB agar are pinkish-red, raised, circular, and 1-2 mm in diameter. ATX20345 was typed by fatty acid analysis (as known in the art), and determined to be a strain of Serratia marcescens. […]

Compound: CP(=O)(O)CCC(N)C(=O)O (stereo not drawn) [glufosinate]
- growth on glufosinate minimal M63+ agar media [1]: shown to grow
- Ki [2]: 2000 µM
- growth in the presence of glufosinate [3]: grew in the presence of glufosinate
- Ki [4]: 13 µM
- (Kcat*Ki)/Km ([4]; Table 5, Km glutamate, Ki glufosinate): 12.59
- growth of ATX 20345 in the presence of glufosinate (ATX 20345): ability to grow in the presence of 5 mM glufosinate; also recorded: grows well through 50 mM
